# Tested on: P. falciparum 3D7 growth, pLDH absorbance
# Experiment: blood-stage malaria parasite growth potency – strain 3D7, dose response (AID 2305)
row,Compound,IC50 [nM]
1,CCCOc1ccc2ccccc2c1CNCCCCCCNCc1c(OCCC)ccc2ccccc12,790
2,Cc1cnc(C(=O)Nc2cccc(-c3ccc(-c4nc5ccc(C(F)(F)F)cc5[nH]4)s3)c2)cn1,700
3,O=S(=O)(NCCN1CCCC1)c1cccc(-c2cccc(CNCc3ccsc3)c2)c1,870
4,Cc1cccn2c(=O)c3cc(C(=O)NCCN4CCOCC4)c(=N)n(CCc4ccccc4)c3nc12,470
5,CN1CCC(C(=O)Nc2cccc(-c3ccc(-c4nc5ccc(F)cc5[nH]4)cc3)c2)CC1,710
6,COc1ccc(NC(=O)/C=C/c2cc(Br)ccc2F)cc1OCCN(C(C)C)C(C)C,760
7,CCOC(=O)CNC(=O)N1CCN(C(=O)NCC(=O)OCC)CC1,850
8,Cc1ccc2[nH]c(C)c(Br)c(=O)c2c1,810
9,Cc1cccc2[nH]c(-c3cccc(-c4ccc(CNCCNC(=O)c5ccnn5C)cc4)c3)nc12,170
10,N#Cc1ccc(C=NNc2nc3ccccc3[nH]2)cc1,1000
11,NCC1CCCN1Cc1cccc(-c2ccc(-c3nc4ccc(C(F)(F)F)cc4[nH]3)cc2)c1 (centres undefined),780
12,Cc1cc(C)cc(CC(=O)N2CCC(n3c(C)nc4ccc(C)cc43)CC2)c1,530
13,COc1cc2nc(Nc3ccc4c(cnn4Cc4ccccc4)c3)nc(Nc3ccc4c(cnn4Cc4ccccc4)c3)c2cc1OC,190
14,CCN(CC)CCN(Cc1ccc(-c2ccc(C(F)(F)F)cc2)cc1)C(=O)Cn1cc(Cc2cnn(C)c2)c(=O)n2nc(-c3ccccc3)cc12,730
15,COc1cc(Cc2cnc(N)nc2N)cc(OCCCOc2ccccc2)c1OC,1080
16,OC(CNCc1ccccc1Oc1ccccc1)c1cccc(C(F)(F)F)c1 (centres undefined),710
17,CCN(CC)S(=O)(=O)c1ccc(C=CC(=O)Nc2cc(Cl)ccc2N2CCOCC2)cc1,920
18,Cc1ccccc1NC(=S)NC1CCN(CCCCCNC(=O)/C=C/c2ccc(Cl)c(Cl)c2)CC1,790
19,O=C(Nc1cccc(C(F)(F)F)c1)c1cccc(S(=O)(=O)NC2CCCN(CC3CCCCC3)C2)c1 (centres undefined),860
20,Cc1ccccc1C1CCN(C2CCC(NC(=O)c3cc4cc(Cl)ccc4o3)CC2)CC1 (centres undefined),1200
21,CN(C(=O)Nc1ccc(C(F)(F)F)cc1)C1CCN(CCCCCNC(=O)/C=C/c2ccc(Cl)c(Cl)c2)CC1,330
22,Cc1[nH]c2ccc(C#N)cc2c(=O)c1Br,640
23,Cc1cc(C)c2cc(CNCCCNc3nc4ccccc4[nH]3)[nH]c2c1,770
24,CC(=O)Nc1ccc(Nc2ncc([N+](=O)[O-])c(Nc3ccccc3C(N)=O)n2)cc1,370
25,CC(=O)N1Cc2ccccc2C1=O,520

row,Compound,IC50 [nM]
1,COc1ccc2nccc(N3CCN(CCNCc4ccc5c(n4)NC(=O)CS5)CC3)c2c1,950
2,Fc1cc(Cl)ccc1Nc1ccnc2cc(-c3ccc(CNCCN4CCOCC4)o3)ccc12,280
3,COc1ccc(OC)c(C=NNc2nc3ccccc3[nH]2)c1,730
4,O=C(/C=C/c1ccc(Cl)c(Cl)c1)NCCCCCN1CCCN(C(=O)Nc2ccc(C(F)(F)F)cc2)CC1,690
5,Cc1cc2c(cc1C(F)(F)F)N(C(=O)Nc1cnc(OCCN(C)C)c(C(F)(F)F)c1)CC2,970
6,COc1ccc(-c2ccccc2CNC2Cc3ccccc3C2)cc1S(=O)(=O)NCCN1CCCC1,870
7,OC1CCCN(Cc2ccc(-c3ccc(-c4nc5ccc(F)cc5[nH]4)s3)cc2)C1 (centres undefined),850
8,O=C(Nc1ccc(Br)c(C(F)(F)F)c1)c1cccc([N+](=O)[O-])c1,910
9,O=C(Cn1c(CCc2cccc(F)c2F)cc(=O)c2cccnc21)N(CCN1CCCC1)Cc1ccc(-c2ccc(C(F)(F)F)cc2)cc1,890
10,CC(=O)Nc1ccc(C(=O)Nc2ccc(-c3cccc(-c4nc5ccccc5[nH]4)c3)cc2)cn1,240
11,Cc1cc(C(=O)Nc2ccc3c(c2)CCN3C2CCN(Cc3ccc4nsnc4c3)C2)no1 (centres undefined),640
12,Fc1ccc(NC(=S)NN=Cc2ccccn2)cc1,770
13,Nc1ccc2nc(C=Cc3ccccc3)[nH]c2c1,750
14,O=C(Nc1cccc(-c2nn3ccccc3c2-c2ccnc(Nc3ccccc3)n2)c1)c1cc(F)ccc1F,950
15,CS(=O)(=O)NCCCNCc1cccc(-c2ccc(-c3nc4ccc(C(F)(F)F)cc4[nH]3)s2)c1,880
16,CN1CCN(c2ccnc3ccc(NC(=O)Nc4cccc5c(-c6ccncc6)cccc45)cc23)CC1,880
17,CCOc1cc(C(=O)N[C@@H](Cc2ccccc2)[C@H](O)CNCc2cc(OC)cc(OC)c2)cc(N2CCCCS2(=O)=O)c1,520
18,O=C(c1cccc(-c2cccc(-c3nc4ccc(C(F)(F)F)cc4[nH]3)c2)c1)N1CCCCC1CN1CCC(O)C1 (centres undefined),280
19,COc1cccc(-c2nn(C)c3sc(C(=O)NCCN4CCN(c5ccccc5F)CC4)cc23)c1,950
20,O=C(NC1CCC(N2CCCC(OCc3ccccc3)C2)CC1)c1cc2ccccc2[nH]1 (centres undefined),1210
21,Cc1cccc(-c2ccc3c(c2)CC(NCc2cccc(-n4ccnc4)c2)C3)c1 (centres undefined),870
22,COc1ccc2ccccc2c1C=NNc1ccnc2cc(Cl)ccc12,610
23,Cc1cc(C2CCN(CCCCNC(=O)c3ccc(NC(=O)c4ccc(Cl)cc4)cc3)CC2)c(C)cc1OCCN(C)C,770
24,CN(C)CCOc1ccc(NC(=O)NC(C)(C)c2nc(-c3ccc(Cl)c(O)c3)c(-c3ccncc3)[nH]2)cc1,110

# — PubChem BioAssay AID2305 (GlaxoSmithKline (GSK), 2010)
